Data from PubChem BioAssay AID330 (DTP/NCI, 2004).
Where “and” joins values, the source holds several entries; their conditions need not be identical. Identical values can stand only once. Toxic doses and inconclusive results are not listed. How the source made its calls: active means survival T/C of 150% or more; inactive means T/C below 125% in these data. Peptide text beside a SMILES is read from it. * marks the point of attachment. For = O=C*

System: P388 leukemia ip, CD2F1 mice, survival T/C
Experiment: NCI In Vivo Anticancer Drug Screen. Data for tumor model P388 Leukemia (intraperitoneal) in CD2F1 (CDF1) mice
Conditions: endpoint: median survival time, higher = longer survival
Procedure, shortened: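 Mice carrying the transplanted tumor received test compound or vehicle. Survival was recorded in each group, and the value is the treated-group measurement divided by that of the vehicle-treated control group.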

[1] = dose: 12.5 mg/kg/injection, schedule: Q01DX005 (ip), vehicle: Klucel (hydroxypropylcellulose) (HPC)
[2] = dose: 25.0 mg/kg/injection, schedule: Q01DX005 (ip), vehicle: Klucel (hydroxypropylcellulose) (HPC)
[3] = dose: 50.0 mg/kg/injection, schedule: Q01DX005 (ip), vehicle: Klucel (hydroxypropylcellulose) (HPC)
[4] = dose: 100.0 mg/kg/injection, schedule: Q01DX005 (ip), vehicle: Klucel (hydroxypropylcellulose) (HPC)
[5] = dose: 200.0 mg/kg/injection, schedule: Q01DX005 (ip), vehicle: Klucel (hydroxypropylcellulose) (HPC)
[6] = dose: 50.0 mg/kg/injection, schedule: Q01DX009 (ip), vehicle: Klucel (hydroxypropylcellulose) (HPC)
[7] = dose: 100.0 mg/kg/injection, schedule: Q01DX009 (ip), vehicle: Klucel (hydroxypropylcellulose) (HPC)
[8] = dose: 200.0 mg/kg/injection, schedule: Q01DX009 (ip), vehicle: Klucel (hydroxypropylcellulose) (HPC)
[9] = dose: 50.0 mg/kg/injection, schedule: Q01DX005 (ip), vehicle: saline with Tween-80
[10] = dose: 100.0 mg/kg/injection, schedule: Q01DX005 (ip), vehicle: saline with Tween-80
[11] = dose: 200.0 mg/kg/injection, schedule: Q01DX005 (ip), vehicle: saline with Tween-80
[12] = dose: 6.25 mg/kg/injection, schedule: Q01DX009 (ip), vehicle: saline
[13] = dose: 50.0 mg/kg/injection, schedule: Q01DX009 (ip), vehicle: saline with Tween-80
[14] = dose: 100.0 mg/kg/injection, schedule: Q01DX009 (ip), vehicle: saline with Tween-80
[15] = dose: 200.0 mg/kg/injection, schedule: Q01DX009 (ip), vehicle: saline with Tween-80
[16] = dose: 60.0 mg/kg/injection, schedule: Q01DX005 (ip), vehicle: saline with Tween-80

Measured: T/C

COn1c2ccccc2c2c1cc1ccccc1[n+]2[O-]
inactive: [1] 113 % of control | [2] 111 % of control | [3] 106 % of control | [4] 90 % of control | [5] 94 % of control

O=[Se](=O)(O)O
inactive: dose: 1.88 mg/kg/injection, schedule: Q01DX005 (ip), vehicle: saline 103 % of control | dose: 3.75 mg/kg/injection, schedule: Q01DX005 (ip), vehicle: saline 109 % of control and 99 % of control | dose: 7.5 mg/kg/injection, schedule: Q01DX005 (ip), vehicle: saline 113 % of control and 101 % of control | dose: 15.0 mg/kg/injection, schedule: Q01DX005 (ip), vehicle: saline 86 % of control and 98 % of control

Cn1c(=O)c2c(nc(N3CCN(CCO)CC3)n2CC(O)CCl)n(C)c1=O (stereo not given)
inactive: dose: 50.0 mg/kg/injection, schedule: Q01DX005 (ip), vehicle: water 100 % of control | dose: 100.0 mg/kg/injection, schedule: Q01DX005 (ip), vehicle: water 99 % of control | dose: 200.0 mg/kg/injection, schedule: Q01DX005 (ip), vehicle: water 99 % of control

Nc1ncncc1-c1ccc2ccccc2c1
inactive: [6] 95 % of control | [7] 92 % of control | [8] 96 % of control

CSCCC(NC=O)C(=O)NC(C(=O)O)C(C)C (stereo not drawn) (For-Met-Val-OH; configuration not given here)
inactive: [3] 101 % of control | [4] 97 % of control | [5] 101 % of control

c1ccc2c(c1)-c1ccccc1C1NC21 (stereo not given)
inactive: dose: 12.5 mg/kg/injection, schedule: Q01DX001 (ip), vehicle: saline with Tween-80 99 % of control and 110 % of control | dose: 25.0 mg/kg/injection, schedule: Q01DX001 (ip), vehicle: saline with Tween-80 105 % of control and 110 % of control and 123 % of control | dose: 50.0 mg/kg/injection, schedule: Q01DX001 (ip), vehicle: saline with Tween-80 113 % of control | [9] 112 % of control | dose: 100.0 mg/kg/injection, schedule: Q01DX001 (ip), vehicle: saline with Tween-80 113 % of control | [10] 110 % of control | [11] 119 % of control

CC(=O)OC1C(OC(C)=O)C2C(C)CC3OC(=O)C(C)C3CC2(C)C1OC(C)=O (stereo not given)
inactive: [12] 110 % of control | dose: 12.5 mg/kg/injection, schedule: Q01DX009 (ip), vehicle: saline 103 % of control | dose: 25.0 mg/kg/injection, schedule: Q01DX009 (ip), vehicle: saline with Tween-80 100 % of control (2×) and 123 % of control | dose: 25.0 mg/kg/injection, schedule: Q01DX009 (ip), vehicle: saline 113 % of control | [13] 100 % of control and 121 % of control and 97 % of control | [14] 103 % of control and 104 % of control and 93 % of control | [15] 96 % of control | dose: 400.0 mg/kg/injection, schedule: Q01DX009 (ip), vehicle: saline with Tween-80 96 % of control

COC(=O)C1CC23C4=C(CCC41)CCC1CN4CC(C)C(CC(OC(C)=O)C12COC(C)=O)C43O (stereo not given)
inactive: dose: 0.78 mg/kg/injection, schedule: Q01DX009 (ip), vehicle: suspension in saline 108 % of control | dose: 1.56 mg/kg/injection, schedule: Q01DX009 (ip), vehicle: suspension in saline 104 % of control | dose: 3.13 mg/kg/injection, schedule: Q01DX009 (ip), vehicle: suspension in saline 100 % of control | dose: 6.25 mg/kg/injection, schedule: Q01DX009 (ip), vehicle: suspension in saline 104 % of control

N#Cc1ncn(Cc2ccccc2)c1N
inactive: dose: 15.0 mg/kg/injection, schedule: Q01DX005 (ip), vehicle: saline with Tween-80 95 % of control | dose: 30.0 mg/kg/injection, schedule: Q01DX005 (ip), vehicle: saline with Tween-80 101 % of control | [16] 105 % of control and 109 % of control

CCOC(=O)C(C(=O)OCC)C1(O)C2CCCC21 (stereo not given)
inactive: dose: 100.0 mg/kg/injection, schedule: Q04DX002 (ip), vehicle: saline with Tween-80 101 % of control | dose: 200.0 mg/kg/injection, schedule: Q04DX002 (ip), vehicle: saline with Tween-80 101 % of control | dose: 400.0 mg/kg/injection, schedule: Q04DX002 (ip), vehicle: saline with Tween-80 104 % of control

C/C=C/c1cc(OC)c2c(c1)[C@H](C)C(c1ccc(O)c(OC)c1)O2 (stereo not given in full)
inactive: dose: 37.5 mg/kg/injection, schedule: Q01DX005 (ip), vehicle: Klucel (hydroxypropylcellulose) (HPC) 106 % of control | dose: 75.0 mg/kg/injection, schedule: Q01DX005 (ip), vehicle: Klucel (hydroxypropylcellulose) (HPC) 97 % of control | dose: 150.0 mg/kg/injection, schedule: Q01DX005 (ip), vehicle: Klucel (hydroxypropylcellulose) (HPC) 95 % of control

CC1(/C=C/c2ccccc2)OCCO1
inactive: [13] 99 % of control | [14] 98 % of control | [15] 102 % of control

CC[CH2][Sn]([CH2]CC)([O]C(C)=O)[c]1ccccc1
inactive: dose: 1.56 mg/kg/injection, schedule: Q01DX009 (ip), vehicle: saline 90 % of control | dose: 3.12 mg/kg/injection, schedule: Q01DX009 (ip), vehicle: saline 86 % of control | [12] 87 % of control | dose: 50.0 mg/kg/injection, schedule: Q01DX009 (ip), vehicle: saline 113 % of control

O=C1OCCN1c1cccc2ccccc12
inactive: [16] 95 % of control | dose: 120.0 mg/kg/injection, schedule: Q01DX005 (ip), vehicle: saline with Tween-80 96 % of control | dose: 240.0 mg/kg/injection, schedule: Q01DX005 (ip), vehicle: saline with Tween-80 93 % of control

O=C(O)c1ccnc2nc[nH]c12
inactive: dose: 100.0 mg/kg/injection, schedule: Q04DX002 (ip), vehicle: Klucel (hydroxypropylcellulose) (HPC) 100 % of control | dose: 200.0 mg/kg/injection, schedule: Q04DX002 (ip), vehicle: Klucel (hydroxypropylcellulose) (HPC) 106 % of control | dose: 400.0 mg/kg/injection, schedule: Q04DX002 (ip), vehicle: Klucel (hydroxypropylcellulose) (HPC) 100 % of control

Nn1nnc(-c2ccccc2)n1
inactive: [6] 96 % of control | [7] 96 % of control | [8] 97 % of control

CCOC(=O)Nc1c(CC(C)(C)O)n[nH]c1C
inactive: [9] 103 % of control | [10] 100 % of control | [11] 100 % of control

O=C1/C(=C/c2cccc([N+](=O)[O-])c2)SC(=S)N1C1CC1
inactive: [3] 89 % of control | [4] 89 % of control

CCOC(=O)c1ccc(NC(CCN2CCN(CCC(=NC(C)(C)C)Nc3ccc(C(=O)OCC)cc3)CC2)=NC(C)(C)C)cc1
inactive: [6] 96 % of control | [7] 92 % of control | [8] 90 % of control

C[CH2][Sn]([Cl])([CH2]C)[O][Sn]([CH2]C)([CH2]C)[O][Sn]([Cl])([CH2]C)[CH2]C
inactive: dose: 6.25 mg/kg/injection, schedule: Q01DX005 (ip), vehicle: Klucel (hydroxypropylcellulose) (HPC) 118 % of control and 121 % of control | [1] 113 % of control | [2] 111 % of control

CC(C)C1CCC2(C)C(CCC3C4(C)CCCC32OC4=O)C1 (stereo not given)
inactive: [3] 104 % of control | [4] 99 % of control | [5] 101 % of control

CC1=NOC2C1Sc1ccccc1N2C (stereo not given)
inactive: [3] 103 % of control | [4] 102 % of control | [5] 100 % of control

CN1CCC2(C)CC(Br)(Cc3ccccc32)C1Cl (stereo not given)
inactive: [3] 108 % of control | [4] 106 % of control

CCCCCCCC(=O)N/N=C/c1ccc(O)c(OCC)c1
inactive: [9] 95 % of control | [10] 90 % of control

O=C(O)CCc1nc(-c2ccccc2-n2cccc2)no1
inactive: [13] 96 % of control | [14] 102 % of control
